Measurements from patent US20150182546A1, “THERAPEUTIC AGENT FOR ENHANCING MITOCHONDRIAL FUNCTION” (Mitochondrial Concepts LLC, priority 2013, published 2015).

Experiments:
Assay type in all cases: in vivo, human
[1] = system: pseudohypertrophic muscular dystrophy patients; experiment: Treatment of pseudohypertrophic muscular dystrophy patients with 4SAS
patient of advanced age = experiment: Treatment of a patient of advanced age with oral 4SAS; settings: patient in early 70s; oral dosage
ALS patient = experiment: Treatment of an ALS patient with oral 4SAS; settings: ALS patient previously unable to speak; oral dosage
[2] = Oral administration of adenylosuccinate in clinical trials
Excerpt: The administration of the adenylosuccinate may be accomplished via several approaches. It is possible to administer adenylosuccinate by means of a sub-cutaneous pump. […] Alternatively, adenylosuccinate might be suitably packaged for timed release or trans-dermal application.

Row | SMILES | Improved? ([1]; Patient A, severity 1, therapy 81-89, 1 mg-10 mg, 10-20 mg, 100 mg, 200 mg) | Improved? ([1]; Patient C, severity 3, therapy 81-84, 1 mg-10 mg, 10-20 mg) | Improved? ([1]; Patient D, severity 4, therapy 81-84, 1 mg-10 mg, 10-20 mg) | Improved? ([1]; Patient E, severity 5, therapy 81-84, 1 mg-10 mg, 10-20 mg) | Improved? ([1]; Patient F, therapy 88-89, 70 mg) | Improved? ([1]; Patient G, therapy 87-89, 150 mg, 333 mg) | Improved? ([1]; Patient H, therapy 88-89, 200 mg, 300 mg) | Improved? ([1]; Patient I, therapy 86-89, 10 mg, 25 mg, 100 mg) | Improved? ([1]; Patient J, therapy 86-89, 1200 mg) | Improved? ([1]; Patient K, therapy 87-89, 200 mg, 300 mg) | Improved? ([1]; Patient L, therapy 87-89, dosage small) | Improved? ([1]; Patient N, therapy 89-89, 300 mg) | strength and related functionality ([1]; thirteen young PMD patients at various stages, intraperitoneal, subcutaneous and oral dosages) | energy (patient of advanced age) | healing (patient of advanced age) | posture (patient of advanced age) | capacity to speak (ALS patient) | efficacy of oral administration [2]
1 | O=C([O-])C[C@H](Nc1ncnc2c1ncn2[C@@H]1O[C@H](COP(=O)([O-])[O-])[C@@H](O)[C@H]1O)C(=O)[O-].[Na+].[Na+].[Na+].[Na+] [4SAS, tetrasodium adenylosuccinate] | Yes | Yes | Yes | Yes | Yes | Yes | Yes | Yes | Yes | Yes | Yes | Yes | increased strength and related functionality | increased energy | accelerated healing | improved posture | temporarily regained capacity to speak intelligibly | –
2 | O=C(O)CC(Nc1ncnc2c1ncn2[C@@H]1O[C@H](COP(=O)(O)O)[C@@H](O)[C@H]1O)C(=O)O (stereo partly drawn) [adenylosuccinate] | – | – | – | – | – | – | – | – | – | – | – | – | – | – | – | – | – | proven efficacious
